The text below walks through data of patent US8192999B2, “Method for the identification of macromolecule targets of analytes” (priority 2005, dated 2012).

This experiment relates to E. coli proteins. The experiment is described as follows: Non-specific binding of MTX to proteins of E. coli cell lysate (HPLC co-fractionation). As to conditions: MTX-spiked E. coli extract; FIG. 9.

As to `CN(Cc1cnc2nc(N)nc(N)c2n1)c1ccc(C(=O)N[C@@H](CCC(=O)O)C(=O)O)cc1` [MTX, methotrexate], the “non-specific binding of the drug to E. coli proteins” value is listed as “no non-specific binding of the drug to any E. coli proteins was detected”.
